Results: patent US7208572B2, “Leptin-related peptides” (Albany Medical College, priority 1998, dated 2007)
Marks after values point to notes of the source that are not given here. Square brackets hold non-standard residues; d marks the D form. Ends that are not written are not given here. Peptide text beside a SMILES is read from it.

T1: OB-Ra (Mus musculus, UniProt P48356)
T1 construct: expressed in transfected cells; host or cells: COS-7
T1 sequence (P48356 22-894 isoform P48356-2 limits assumed): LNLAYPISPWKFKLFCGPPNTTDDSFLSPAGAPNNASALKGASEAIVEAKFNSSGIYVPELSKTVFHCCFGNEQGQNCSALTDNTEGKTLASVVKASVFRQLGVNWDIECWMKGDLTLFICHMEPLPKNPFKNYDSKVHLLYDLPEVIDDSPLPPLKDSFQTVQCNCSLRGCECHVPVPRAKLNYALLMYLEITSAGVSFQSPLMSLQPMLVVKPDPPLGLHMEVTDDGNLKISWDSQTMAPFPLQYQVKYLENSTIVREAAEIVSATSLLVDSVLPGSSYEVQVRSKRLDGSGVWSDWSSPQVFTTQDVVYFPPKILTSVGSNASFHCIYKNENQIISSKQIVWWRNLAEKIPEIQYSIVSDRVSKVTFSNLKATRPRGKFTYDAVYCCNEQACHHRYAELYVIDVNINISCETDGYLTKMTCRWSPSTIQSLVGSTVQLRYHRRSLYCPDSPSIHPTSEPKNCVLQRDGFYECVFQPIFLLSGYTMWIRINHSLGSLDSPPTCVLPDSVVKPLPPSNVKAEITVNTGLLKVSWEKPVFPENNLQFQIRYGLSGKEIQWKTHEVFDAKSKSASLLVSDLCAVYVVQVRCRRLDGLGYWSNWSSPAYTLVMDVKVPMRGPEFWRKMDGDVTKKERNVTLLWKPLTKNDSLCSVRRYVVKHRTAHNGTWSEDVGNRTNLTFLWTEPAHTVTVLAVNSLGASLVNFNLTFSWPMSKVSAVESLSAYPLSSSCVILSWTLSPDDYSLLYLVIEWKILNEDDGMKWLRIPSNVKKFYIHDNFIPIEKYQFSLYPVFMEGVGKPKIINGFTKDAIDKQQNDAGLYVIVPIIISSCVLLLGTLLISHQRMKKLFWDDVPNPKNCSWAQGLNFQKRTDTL

T2: OB-Rb (Mus musculus, UniProt P48356)
T2 construct: full-length leptin receptor (OB-Rb), the receptor isoform predominantly expressed in the hypothalamus; expressed in transfected cells; host or cells: GT1-7
T2 sequence (P48356 22-1162): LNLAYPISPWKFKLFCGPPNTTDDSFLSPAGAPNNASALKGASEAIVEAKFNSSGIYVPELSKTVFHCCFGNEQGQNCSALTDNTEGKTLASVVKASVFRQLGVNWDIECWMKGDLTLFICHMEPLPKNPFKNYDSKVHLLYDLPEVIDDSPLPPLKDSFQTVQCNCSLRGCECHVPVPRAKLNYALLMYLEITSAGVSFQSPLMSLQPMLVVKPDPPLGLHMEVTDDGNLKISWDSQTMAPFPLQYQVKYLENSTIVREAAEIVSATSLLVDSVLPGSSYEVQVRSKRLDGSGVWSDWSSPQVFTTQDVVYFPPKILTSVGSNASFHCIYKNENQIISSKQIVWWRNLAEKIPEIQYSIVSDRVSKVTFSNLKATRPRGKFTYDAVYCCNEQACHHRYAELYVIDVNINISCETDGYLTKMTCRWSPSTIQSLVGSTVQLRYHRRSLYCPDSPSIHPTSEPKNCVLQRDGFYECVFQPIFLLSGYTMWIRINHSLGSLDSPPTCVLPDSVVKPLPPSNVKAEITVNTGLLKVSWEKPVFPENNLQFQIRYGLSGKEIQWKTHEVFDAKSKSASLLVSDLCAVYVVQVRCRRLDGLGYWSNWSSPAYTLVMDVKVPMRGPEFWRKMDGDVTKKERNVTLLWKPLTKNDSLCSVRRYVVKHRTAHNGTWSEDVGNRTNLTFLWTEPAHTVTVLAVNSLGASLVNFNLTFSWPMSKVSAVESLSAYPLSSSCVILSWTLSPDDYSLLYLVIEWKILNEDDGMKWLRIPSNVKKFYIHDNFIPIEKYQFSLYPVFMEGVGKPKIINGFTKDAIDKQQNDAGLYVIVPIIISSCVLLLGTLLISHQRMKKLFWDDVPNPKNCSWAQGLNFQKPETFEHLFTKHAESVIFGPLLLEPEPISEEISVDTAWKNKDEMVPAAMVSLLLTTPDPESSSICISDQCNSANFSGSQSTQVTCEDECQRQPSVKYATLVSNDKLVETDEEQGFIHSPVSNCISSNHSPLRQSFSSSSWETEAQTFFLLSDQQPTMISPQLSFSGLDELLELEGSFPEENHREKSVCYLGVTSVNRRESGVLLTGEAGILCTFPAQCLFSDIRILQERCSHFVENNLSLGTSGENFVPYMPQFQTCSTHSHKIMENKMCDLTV

B1: mouse leptin: recombinant mouse leptin used as positive control in binding and SEAP assays (protein, listed as Mus musculus)
chain: MCWRPLCRFLWLWSYLSYVQAVPIQKVQDDTKTLIKTIVTRINDISHTQSVSAKQRVTGLDFIPGLHPILSLSKMDQTLAVYQQVLTSLPSQNVLQIANDLENLRDLLHLLAFSKSCSLPQTSGLQKPESLDGVLEASLYSTEVVALSRLQGSLQDILQQLDVSPEC

Key:
[1] = Short-term (7-day) toxicity study in female C57BLK/6-m wild type mice; conditions: 1 mg/day ip, 7 days
Experimental: Methods: OB3, [D-Leu-4]-OB3, hOB3 or vehicle was administered intraperitoneally once daily (1 mg/day, 7 days) to groups (n=6 mice per group) of C57BLK/6-m wild type mice of the same age as their obese (ob/ob or db/db) counterparts. The effects of the peptides on body weight gain, food and water intake, glucose homeostasis, serum insulin levels, and ability to thermoregulate were examined.

[2] = 28-day ip study of body weight and food intake in female C57BL/6J ob/ob mice; assay type: in vivo, mouse; conditions: 1 mg per day ip, 28 days
From the text: In order to examine this possibility, six overlapping peptide amides, which corresponded to amino acid residues 106 to 167 of mouse leptin, were synthesized and their effects on body weight and food intake in female C57BL/6J ob/ob mice were subsequently assessed.

[3] = Epitope mapping: body weight and food intake in female C57BL/6J ob/ob mice, 7 daily ip injections; assay type: in vivo, mouse; conditions: for Cumulative food intake / Percent heavier (+) or lighter (−) than initial weight / Weight gain (+) or loss (−): 1 mg/day ip; for Cumulative food intake / Percent heavier (+) or lighter (−) than initial weight / Weight gain (+) or loss (−) / Reduction of food intake / Food intake vs vehicle: 7 days; for Reduction of food intake / Weight loss: 1 mg daily; for Weight loss: after 7 days
Experimental: Animal procedures. Feeding and weighing schedules, as well as peptide administration protocols, are as described in EXAMPLE 8, supra.
Statistical analysis. Changes in body weight and differences in food intake between peptide-treated and vehicle-injected control mice were analyzed by analysis of variance (ANOVA) and considered significant when P<0.05.
Female ob/ob mice (n=6 per group) were given a single ip injection of 0.2 ml of vehicle (PBS, pH 7.2) or leptin-related synthetic peptide amide in 0.2 ml PBS for 7 consecutive days. Daily changes in body weight compared to pretreatment weights in both vehicle-injected control and peptide-treated mice are shown in FIG. 4. […] There was no evidence of weight loss in response to peptide treatment.

OB-Ra = target: T1, OB-Ra; assay: Inhibition of AP-OB fusion protein binding by COS-7 cells transfected with OB receptor; conditions: 30 nM unlabelled mouse leptin
From the text: (§1) Initial experiments to determine the mechanism of action of LEP(116–130) utilized two highly sensitive in vitro bioassays routinely used to assess leptin binding and receptor activation (see e.g., White, et al., 1997. Proc. Natl. Acad. Sci. U.S.A. 94: 10657–10662). An alkaline phosphatase (“AP”)-leptin (“OB”) fusion protein (“AP-OB”) was used to measure inhibition of leptin binding in the absence or presence of recombinant mouse leptin (positive control) or peptide, by COS-7 cells transfected with the long (signaling) form of the mouse OB receptor (“OB-RL”). Signal transduction assays were done in GT1–7 cells cotransfected with AP reporter and OB-RL constructs. Secreted alkaline phosphatase (“SEAP”) activity in response to stimulation with mouse leptin or peptide was measured by chemiluminescence.
Two days after transfection, COS-7 cells were incubated with 1 nm human AP-OB fusion protein and bound AP activity was determined by chemiluminescence using the Great EscApe alkaline phosphatase detection kit as described by the manufacturer (CLON-TECH).
COS-7 cells were transfected with expression vector for OB-Ra. Two days after transfection, the cells were incubated with 1 nM human AB-OB fusion protein in the absence or presence of 30 nM mouse leptin, 300 μM LEP(116–130) or LEP(146–160). Bound AP activity was determined as has been described. See., e.g., Kamohara et al., 1997 Nature 389: 374–377.

OB-Rb = target: T2, OB-Rb; assay: SEAP reporter gene signal transduction assay in GT1–7 cells cotransfected with HRRE-SEAP and OB-Rb; assay type: cell-based; conditions: 6 nM mouse leptin, 24 h
From the text: as §1
Two days after transfection, the cells were stimulated with mouse leptin or leptin-related synthetic peptides for 24 hours. Growth media were harvested and SEAP activity was determined by chemiluminescence as described for AP-OB binding studies.
COS-7 and GT1–7 cells were cultured in DMEM supplemented with 10% fetal bovine serum, and transfected by the lipofectamine method. […] Supernatants were collected and SEAP reporter activities were measured by chemiluminescence using the GreatEscApe alkaline phosphatase detection kit as described by the manufacturer (CLONTECH). […]

Molecule | Toxic effects [1] | Weight gain and food intake vs vehicle [2] | Cumulative food intake [3] | Percent heavier (+) or lighter (−) than initial weight [3] | Weight gain (+) or loss (−) [3] | also measured
CC(C)C[C@@H](NC(=O)[C@H](CO)NC(=O)[C@H](CS)NC(=O)[C@@H](N)CO)C(=O)N1CCC[C@H]1C(=O)N[C@@H](CCC(N)=O)C(=O)N[C@H](C(N)=O)[C@@H](C)O [[D-Leu-4]-OB3, Ser-Cys-Ser-[D-Leu]-Pro-Gln-Thr] (H-SCS[dL]PQT-NH2) | no apparent toxic effects | – | – | – | – | –
D I L Q Q L D V S P E C (DILQQLDVSPEC; not fully specified (N-terminus)) [LEP(156–167)] | – | continued to consume food and gain weight at a rate comparable to vehicle-injected control mice | 40.3 ± 0.6 gm/mouse | +22.6% | +5.7 g | –
D L L H L L A F S K S C S L P (DLLHLLAFSKSCSLP) [LEP(106–120)] | – | significantly (P<0.01) restricted weight gain and food intake | 34.5 ± 1.1^b gm/mouse | −12.0% | −6.1^a g | Reduction of food intake [3]: 14.8%; Weight loss [3]: 12.0%; Food intake vs vehicle [3]: significantly (P=0.01) less than vehicle-injected control mice
E A S L Y S T E V V A L S R L (EASLYSTEVVALSRL; not fully specified (N-terminus)) [LEP(136–150)] | – | continued to consume food and gain weight at a rate comparable to vehicle-injected control mice | 38.7 ± 1.6 gm/mouse | +25.6% | +5.4 g | –
Q K P E S L D G V L E A S L Y (QKPESLDGVLEASLY; not fully specified (N-terminus)) [LEP(126–140)] | – | significantly (P<0.01) restricted weight gain and food intake | 34.7 ± 1.3^b gm/mouse | −10.2% | −6.0^a g | Reduction of food intake [3]: 14.3%; Weight loss [3]: 10.2%; Food intake vs vehicle [3]: significantly (P=0.01) less than vehicle-injected control mice
SCHLPWA-NH2 [hOB3, S C H L P W A] | no apparent toxic effects | – | – | – | – | –
SCSLPQT-NH2 [OB3, Ser-Cys-Ser-Leu-Pro-Gln-Thr] | no apparent toxic effects | – | – | – | – | –
B1 | – | – | – | – | – | Competition of bound AP-OB (OB-Ra): efficiently competed; Increase in SEAP activity (OB-Rb): 11 fold
